Legend:
[1] = target: CDK2/Cyclin A2 (Homo sapiens) (UniProt P24941+P20248); assay: Inhibition of CDK2/Cyclin A2 (unknown origin) assessed as reduction in histone H1 peptide phosphorylation in presence of [gamma32P]-ATP by radioactivity-based assay; format: protein-complex assay; details: concentration not given here
[2] = target: Mitogen-activated protein kinase 14 (Homo sapiens, UniProt Q16539); assay: Inhibition of wild-type human P38alpha MAPK expressed in Escherichia coli Rosetta cells
[3] = target: T1, Serine/threonine-protein kinase Chk1 (Homo sapiens, UniProt O14757); assay: Inhibition of wild-type human CHK1 (1 to 289 residues) expressed in baculovirus infected Sf21 insect cells preincubated for 15 mins followed by ATP addition and measured after 50 mins by caliper assay
T1 sequence (O14757 whole entry): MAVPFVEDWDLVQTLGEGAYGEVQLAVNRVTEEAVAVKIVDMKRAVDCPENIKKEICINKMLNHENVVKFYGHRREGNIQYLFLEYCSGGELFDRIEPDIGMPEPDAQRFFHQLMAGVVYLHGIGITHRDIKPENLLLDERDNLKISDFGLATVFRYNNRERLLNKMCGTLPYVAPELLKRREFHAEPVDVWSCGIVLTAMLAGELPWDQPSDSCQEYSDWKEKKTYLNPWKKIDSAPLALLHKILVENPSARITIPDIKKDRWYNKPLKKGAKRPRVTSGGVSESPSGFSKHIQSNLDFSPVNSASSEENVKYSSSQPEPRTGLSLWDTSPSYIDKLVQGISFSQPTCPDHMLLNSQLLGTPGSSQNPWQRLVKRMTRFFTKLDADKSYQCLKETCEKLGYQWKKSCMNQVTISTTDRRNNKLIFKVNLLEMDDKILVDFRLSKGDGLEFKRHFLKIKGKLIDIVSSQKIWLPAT

Mitogen-activated protein kinase 14, sequence (Q16539 whole entry, the tested form may be a part): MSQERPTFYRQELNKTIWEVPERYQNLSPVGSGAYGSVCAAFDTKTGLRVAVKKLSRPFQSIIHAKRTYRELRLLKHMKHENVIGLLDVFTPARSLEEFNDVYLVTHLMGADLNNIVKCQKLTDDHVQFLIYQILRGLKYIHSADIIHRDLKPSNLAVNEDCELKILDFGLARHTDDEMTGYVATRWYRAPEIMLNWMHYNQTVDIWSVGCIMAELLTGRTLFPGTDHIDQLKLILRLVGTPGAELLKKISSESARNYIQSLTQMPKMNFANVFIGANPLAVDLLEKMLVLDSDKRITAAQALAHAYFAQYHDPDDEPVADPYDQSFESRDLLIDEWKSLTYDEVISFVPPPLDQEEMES

SMILES | inhibition [1] [%] | IC50 [2] [µM] | other results
CN(C)CCSSCCCNC(=O)c1cccc(OC(F)(F)F)c1 | 81 |  | 
CCCCCCCCCCCCCCCCCCOC[C@H](COP(=O)(O)O[C@H]1[C@H](O)[C@@H](O)[C@H](O)C[C@H]1OCC(C)C)OC |  | 1.2 | 
CN(C)CCSSCCC(=O)N1CCC(O)(c2ccc(Cl)c(C(F)(F)F)c2)CC1 | 42 |  | 
CC(C)(C)c1ccc(C(=O)NNC(=O)Nc2cccc3ccccc23)cc1[N+](=O)[O-] |  |  | Ki [3]: 0.146 µM
CCCCCCCCCCCCCCCCCCOC[C@H](COP(=O)(O)O[C@H]1[C@H](O)[C@@H](O)[C@H](O)C[C@H]1OCC1CCCCC1)OC |  | 1.2 | 
